Consider 1 compound from patent US20240415804A1, “METHOD OF TREATING PANCREATIC CANCER” (University of South Florida, priority 2022, published 2024).

Structures are written as SMILES.

The test system of assay [1] is miR-155. Nature of the assay: miR-155 gene expression by RT-qPCR in Panc02 cells. In kind it is cell-based, mouse. As to conditions: API 40 μM, 24 h, vs DMSO vehicle. The procedure:
MiR-155 is known to be overexpressed in different cancers, including PC^21, 23. The inventors first assessed whether apigenin could modulate the expression of miR-155 in PC cells. Murine PC cell lines Panc02 and UN-KC-6141 as well as the human PC cell line MiaPaCa-2 were treated with API (40 μM) or DMSO vehicle for 24 h and the expression of miR-155 was examined using RT-qPCR assay. […] Since API is known to inhibit the growth of cancer cells, including PC cells^39-43, 47-50, the same PC cell lines were treated with API (40 μM) or DMSO (vehicle) for 24 h and examined cell viability using MTT assay. […] Moreover, Panc02 and UN-KC-6141 cells were then treated with API at a dose dependent concentration (10, 20, 30, 40, 50 μM) and detected apoptosis using flow cytometry (Annexin V and PI).
miR-155 is implicated in the development of pancreatic tumors from pancreatic intraepithelial neoplasia (PanIN) lesions, and is overexpressed in PC^23. The inventors examined whether the depletion of miR-155 modulated PC viability. Murine and human PC cell lines were transfected with miR-155 inhibitor (i.e., MMU-MIR-155-5P/HSA-MIR-155-5P) and scrambled miRNA at a concentration of 100 nM for 24 h and cell viability determined using an MTT assay. The expression of miR-155 was examined using an RT-qPCR assay as well. […]
(In general: Real-time PCR tracks product formation cycle by cycle.)

For assay [2], the system named is CD40. Briefly: Flow cytometry of CD40 expression on M1 TAM in tumors of KC-HPC mice. In kind it is in vivo, mouse. To be noted: KC-HPC-API vs KC-HPC mice. The procedure:
The inventors then assessed the expression of CD40 (a T cell co-stimulation marker) on M1 TAM (gated as MHC-II^+ and CD206) within the tumor from KC-HPC vs. KC-HPC-API mice. […] The femur and tibia were cut at the pelvic-hip joint and muscle was removed. The femurs and tibias were cut at the ends and flushed with a 30-gauge needle and 10 cc syringe filled with completed RPMI media until bone was white onto a petri dish. Pelleted bone marrow (BM) cells were treated with Red Blood Cell (RBC) lysis buffer (eBioscience, Waltham, MA, USA), according to the manufacturer's instructions, and then filtered through a […] nylon mesh cell strainer in 1×PBS. All pancreatic tumors were manually cut into ˜1-2 mm^3 fragments with a sterile razor blade and then enzymatically digested with Collagenase, type IV (Sigma-Aldrich), DNase, type IV (Sigma-Aldrich) and Hyaluronidase, Type V (Sigma-Aldrich) in Hank's Balanced Salt Solution for 1 h, spun down and washed as described in previous studies^61. Digested pancreatic tumor samples were treated with RBC lysis buffer and then filtered through a […] nylon mesh cell strainer in 1×PBS. Bone marrow and digested pancreatic tumor single cell suspensions were counted with a hemocytometer and then resuspended in 3% FBS/PBS. […]
A general note: Flow cytometry measures light scatter and fluorescence of single cells or particles in a stream.

Assay [3] relates to orthotopic (O) mouse model of PC (OPC). As to conditions: earlier report (ref 12), cited from earlier work.

For the compound `O=c1cc(-c2ccc(O)cc2)oc2cc(O)cc(O)c12` [API, 40,5,7-Trihydroxyflavone, 5,7-Dihydroxy-2-(4-hydroxyphenyl)-4-benzopyrone], the miR-155 gene expression entry in assay [1] is reported as “significantly suppressed”. In assay [2], the “CD40 expression on M1 TAM in tumor” value is recorded as “significantly upregulated”. Moreover, in assay [3] (API treatment of OPC mice), the “necrosis of pancreatic tumor cells (H&E staining)” value was “induced necrosis”. Besides, in assay [3] (OPC mouse model), the tumor growth entry was “reduced”.
